Assay results as given in ChEMBL document CHEMBL1201862, “PubChem BioAssay data set” (2004).
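Dose response: 5 concentrations. Exposure: 48 h. Format: 96-well plates. Endpoint: linear interpolation; highest concentration if not reached. GI50 = concentration required for 50% inhibition of growth.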 The source made the active and inactive calls. No stated cut-off is given here; in the data, active = GI50 up to about 1.1 µM and inactive = higher.

Assays:
Test in all cases: DTP human tumour cell line panel, 48 h
HT-29 = system: HT-29
SN12C = system: SN12C
SK-MEL-28 = system: SK-MEL-28
Hs-578T = system: Hs-578T
MCF7 = system: MCF7
HOP-92 = system: HOP-92
SW-620 = system: SW-620
SK-MEL-2 = system: SK-MEL-2
786-0 = system: 786-0
SK-MEL-5 = system: SK-MEL-5
BT-549 = system: BT-549
A498 = system: A498
PC-3 = system: PC-3
EKVX = system: EKVX
HOP-62 = system: HOP-62
NCI/ADR-RES = system: NCI/ADR-RES
NCI-H460 = system: NCI-H460
T47D = system: T47D
CCRF-CEM = system: CCRF-CEM

| SMILES | GI50 (HT-29) | GI50 (SN12C) | GI50 (SK-MEL-28) | GI50 (Hs-578T) | GI50 (MCF7) | GI50 (HOP-92) | GI50 (SW-620) | GI50 (SK-MEL-2) | GI50 (786-0) | GI50 (SK-MEL-5) | GI50 (BT-549) | GI50 (A498) | GI50 (PC-3) | GI50 (EKVX) | GI50 (HOP-62) | GI50 (NCI/ADR-RES) | GI50 (NCI-H460) | GI50 (T47D) | GI50 (CCRF-CEM) |
| --- | --- | --- | --- | --- | --- | --- | --- | --- | --- | --- | --- | --- | --- | --- | --- | --- | --- | --- | --- |
| CC(=O)C(C(C)=O)[C@@H]1OC(C)(C)O[C@@H]1[C@H]1COC(C)(C)O1 | 32.8 µM (inactive) | 20.8 µM (inactive) | 60.3 µM (inactive) | 28.4 µM (inactive) | 43.8 µM (inactive) | > 100 µM (inactive) | 36.6 µM (inactive) | 28.5 µM (inactive) | 32.1 µM (inactive) | 47.8 µM (inactive) | 34.9 µM (inactive) | 93.3 µM (inactive) | 43.6 µM (inactive) | 27.7 µM (inactive) | 45.9 µM (inactive) | 55.6 µM (inactive) | 61.5 µM (inactive) | – | – |
| Cc1ccc(/C=C2\CCCCCC2=O)cc1 | > 100 µM (inactive) | > 100 µM (inactive) | > 100 µM (inactive) | > 100 µM (inactive) | – | > 100 µM (inactive) | > 100 µM (inactive) | > 100 µM (inactive) | > 100 µM (inactive) | > 100 µM (inactive) | > 100 µM (inactive) | > 100 µM (inactive) | > 100 µM (inactive) | > 100 µM (inactive) | > 100 µM (inactive) | – | > 100 µM (inactive) | > 100 µM (inactive) | 41.3 µM (inactive) |
| C[C@H](C(=O)N1C(=O)O[C@@H](c2ccccc2)[C@H]1C)[C@H](c1ccccc1)N(Cc1ccccc1)OC(=O)c1ccccc1 | 26.4 µM (inactive) | 80.7 µM (inactive) | > 100 µM (inactive) | 84.5 µM (inactive) | 30.1 µM (inactive) | 24.4 µM (inactive) | 70.3 µM (inactive) | 22.1 µM (inactive) | 57.4 µM (inactive) | 21 µM (inactive) | 38.3 µM (inactive) | > 100 µM (inactive) | 53.5 µM (inactive) | – | 18.9 µM (inactive) | 30.3 µM (inactive) | 30.4 µM (inactive) | 15.8 µM (inactive) | 37.2 µM (inactive) |
| Cc1cn([C@@H]2C[C@](C)(CO)N(C)O2)c(=O)[nH]c1=O | > 100 µM (inactive) | > 100 µM (inactive) | > 100 µM (inactive) | > 100 µM (inactive) | > 100 µM (inactive) | > 100 µM (inactive) | > 100 µM (inactive) | > 100 µM (inactive) | > 100 µM (inactive) | > 100 µM (inactive) | > 100 µM (inactive) | > 100 µM (inactive) | > 100 µM (inactive) | > 100 µM (inactive) | > 100 µM (inactive) | > 100 µM (inactive) | > 100 µM (inactive) | – | > 100 µM (inactive) |
| CCOC(=O)c1ccc(-c2onc(C)c2Br)[nH]1 | 39.5 µM (inactive) | – | > 100 µM (inactive) | 70.5 µM (inactive) | 27.7 µM (inactive) | 23 µM (inactive) | 60 µM (inactive) | 76 µM (inactive) | 43.4 µM (inactive) | 41.3 µM (inactive) | 34.7 µM (inactive) | 49.9 µM (inactive) | 60 µM (inactive) | 37 µM (inactive) | 59.3 µM (inactive) | 29.7 µM (inactive) | > 100 µM (inactive) | 30 µM (inactive) | – |
| C[C@]12Cc3cnn(-c4ccc(F)cc4)c3NC1CC[C@@H]1C2CC[C@@]2(C)C1CC[C@@H]2O (some centres not stated) | 1.83 µM (inactive) | 13.2 µM (inactive) | 14.1 µM (inactive) | 3.1 µM (inactive) | 4.32 µM (inactive) | 11 µM (inactive) | 3.83 µM (inactive) | – | 2.68 µM (inactive) | 2.65 µM (inactive) | 3.14 µM (inactive) | 8.83 µM (inactive) | 10 µM (inactive) | 4.75 µM (inactive) | 9.75 µM (inactive) | – | 3.65 µM (inactive) | 2.65 µM (inactive) | 6.92 µM (inactive) |
| N=C(N)NCC[C@H](NC(=O)OCCCCCn1ccc(=O)[nH]c1=O)C(=O)O | > 100 µM (inactive) | > 100 µM (inactive) | > 100 µM (inactive) | > 100 µM (inactive) | > 100 µM (inactive) | > 100 µM (inactive) | > 100 µM (inactive) | > 100 µM (inactive) | > 100 µM (inactive) | > 100 µM (inactive) | > 100 µM (inactive) | – | > 100 µM (inactive) | > 100 µM (inactive) | > 100 µM (inactive) | > 100 µM (inactive) | > 100 µM (inactive) | > 100 µM (inactive) | > 100 µM (inactive) |
| CC12CC(c3ccccc3O1)C(C(=O)Nc1ccc(F)cc1)C(=O)N2 (configuration not stated) | 89.9 µM (inactive) | – | > 100 µM (inactive) | > 100 µM (inactive) | > 100 µM (inactive) | – | > 100 µM (inactive) | > 100 µM (inactive) | > 100 µM (inactive) | 32.5 µM (inactive) | 38.5 µM (inactive) | > 100 µM (inactive) | > 100 µM (inactive) | 45.2 µM (inactive) | > 100 µM (inactive) | 47.4 µM (inactive) | 89.7 µM (inactive) | 33.5 µM (inactive) | 28.2 µM (inactive) |
| CC(C)CC(NC=O)C(=O)NC(Cc1ccccc1)NC(=O)CNC(=O)C(C)NC(=O)C(N)Cc1ccc(O)cc1 (configuration not stated) | > 100 µM (inactive) | > 100 µM (inactive) | > 100 µM (inactive) | > 100 µM (inactive) | > 100 µM (inactive) | > 100 µM (inactive) | > 100 µM (inactive) | – | > 100 µM (inactive) | > 100 µM (inactive) | > 100 µM (inactive) | 64.6 µM (inactive) | > 100 µM (inactive) | > 100 µM (inactive) | > 100 µM (inactive) | > 100 µM (inactive) | > 100 µM (inactive) | > 100 µM (inactive) | – |
| COc1ccc(/C=C2\CCc3cc(OC)c(OC)cc3C2=O)cc1 | > 10 µM (inactive) | > 10 µM (inactive) | > 10 µM (inactive) | > 10 µM (inactive) | > 10 µM (inactive) | > 10 µM (inactive) | > 10 µM (inactive) | > 10 µM (inactive) | > 10 µM (inactive) | > 10 µM (inactive) | > 10 µM (inactive) | – | > 10 µM (inactive) | > 10 µM (inactive) | > 10 µM (inactive) | > 10 µM (inactive) | > 10 µM (inactive) | > 10 µM (inactive) | > 10 µM (inactive) |
| COc1cc(/C=C2\CCC(C)/C(=C\c3cc(OC)c(OC)c(OC)c3)C2=O)cc(OC)c1OC (configuration not stated) | 3.21 µM (inactive) | 3.56 µM (inactive) | 4.35 µM (inactive) | 8.81 µM (inactive) | 2.89 µM (inactive) | > 100 µM (inactive) | 3.8 µM (inactive) | 1.67 µM (inactive) | 3.75 µM (inactive) | 2.21 µM (inactive) | 1.02 µM (active) | 1.76 µM (inactive) | 2.7 µM (inactive) | 3.21 µM (inactive) | 3.63 µM (inactive) | – | – | 8.95 µM (inactive) | 1.29 µM (inactive) |
| CCOC(=O)c1c2ccccc2n2c(N)c(C(N)=O)nnc12 | > 100 µM (inactive) | > 100 µM (inactive) | > 100 µM (inactive) | 4.36 µM (inactive) | 17.7 µM (inactive) | – | > 100 µM (inactive) | 20.5 µM (inactive) | 21.9 µM (inactive) | 74.3 µM (inactive) | 22.1 µM (inactive) | 21 µM (inactive) | 60 µM (inactive) | 18 µM (inactive) | 17.3 µM (inactive) | 35.3 µM (inactive) | 50.4 µM (inactive) | 43.1 µM (inactive) | > 100 µM (inactive) |
| O=C(CON1C(=O)c2ccccc2C1=O)c1ccccc1 | 48.3 µM (inactive) | 47.1 µM (inactive) | > 100 µM (inactive) | > 100 µM (inactive) | 40.1 µM (inactive) | 58.6 µM (inactive) | 24.3 µM (inactive) | > 100 µM (inactive) | 32.4 µM (inactive) | > 100 µM (inactive) | > 100 µM (inactive) | > 100 µM (inactive) | > 100 µM (inactive) | > 100 µM (inactive) | > 100 µM (inactive) | > 100 µM (inactive) | > 100 µM (inactive) | 22.3 µM (inactive) | – |
| CC(C(=O)NCNC(=O)c1ccccc1)C(=O)Nc1ccccc1 (configuration not stated) | > 100 µM (inactive) | > 100 µM (inactive) | – | > 100 µM (inactive) | > 100 µM (inactive) | > 100 µM (inactive) | > 100 µM (inactive) | > 100 µM (inactive) | > 100 µM (inactive) | > 100 µM (inactive) | > 100 µM (inactive) | – | > 100 µM (inactive) | > 100 µM (inactive) | – | > 100 µM (inactive) | > 100 µM (inactive) | > 100 µM (inactive) | > 100 µM (inactive) |
| COc1ccc2c(c1)-c1[nH]c3ccccc3c1CC2 | 11 µM (inactive) | 14.4 µM (inactive) | 16.8 µM (inactive) | 15.4 µM (inactive) | 14.9 µM (inactive) | 17.1 µM (inactive) | 16.8 µM (inactive) | 15.5 µM (inactive) | 16.4 µM (inactive) | 13.2 µM (inactive) | 17.2 µM (inactive) | – | 14.9 µM (inactive) | 10.1 µM (inactive) | 16.8 µM (inactive) | 11.9 µM (inactive) | 15.6 µM (inactive) | 13.5 µM (inactive) | 18 µM (inactive) |
| O=c1[nH]c2ccc(CC(=S)N3CCN(c4ccccc4)CC3)cc2s1 | 51.8 µM (inactive) | 70.6 µM (inactive) | > 100 µM (inactive) | 13.8 µM (inactive) | 92 µM (inactive) | – | 71.9 µM (inactive) | 82.2 µM (inactive) | 34.4 µM (inactive) | – | 26.6 µM (inactive) | 62.2 µM (inactive) | 18.3 µM (inactive) | 26.5 µM (inactive) | 16.6 µM (inactive) | 13.2 µM (inactive) | 13 µM (inactive) | – | 68.9 µM (inactive) |
